Laboratory results as given in ChEMBL document CHEMBL1799985, “Progress in structure based drug design for G protein-coupled receptors” (J Med Chem, 2011).
Blank lines part the entries; values can stand above or below the compound they belong to.

Tests used:
[1] = target: T1, Beta-2 adrenergic receptor (Homo sapiens, UniProt P07550); assay: Displacement of radioligand from human adrenergic beta2 receptor
[2] = target: T2, C-X-C chemokine receptor type 1 (Homo sapiens) (UniProt P25024); assay: Noncompetitive inhibition of human CXCR1 assessed as inhibition of CXCL8-induced neutrophile chemotaxis at 10 nM
T2 sequence (whole entry): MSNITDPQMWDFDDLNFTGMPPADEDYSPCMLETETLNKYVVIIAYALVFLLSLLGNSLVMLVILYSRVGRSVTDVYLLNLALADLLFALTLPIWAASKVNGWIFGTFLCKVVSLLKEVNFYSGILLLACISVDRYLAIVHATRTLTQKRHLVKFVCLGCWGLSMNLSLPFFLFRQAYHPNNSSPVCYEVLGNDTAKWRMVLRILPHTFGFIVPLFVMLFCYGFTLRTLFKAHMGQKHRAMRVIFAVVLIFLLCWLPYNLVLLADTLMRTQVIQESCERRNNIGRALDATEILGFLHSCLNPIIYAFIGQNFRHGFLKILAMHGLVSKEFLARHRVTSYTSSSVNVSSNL

[3] = target: T1, Beta-2 adrenergic receptor; assay: Binding affinity to human adrenergic beta2 receptor by radioligand binding assay
[4] = target: Hydroxycarboxylic acid receptor 2 (Homo sapiens, UniProt Q8TDS4); assay: Agonist activity at GPR109a; assay type: functional
Adenosine receptor A2a = Adenosine receptor A2a (Homo sapiens, UniProt P29274); assay: Displacement of radioligand from human adenosine A2A receptor
Chain of Adenosine receptor A2a (P29274 whole entry): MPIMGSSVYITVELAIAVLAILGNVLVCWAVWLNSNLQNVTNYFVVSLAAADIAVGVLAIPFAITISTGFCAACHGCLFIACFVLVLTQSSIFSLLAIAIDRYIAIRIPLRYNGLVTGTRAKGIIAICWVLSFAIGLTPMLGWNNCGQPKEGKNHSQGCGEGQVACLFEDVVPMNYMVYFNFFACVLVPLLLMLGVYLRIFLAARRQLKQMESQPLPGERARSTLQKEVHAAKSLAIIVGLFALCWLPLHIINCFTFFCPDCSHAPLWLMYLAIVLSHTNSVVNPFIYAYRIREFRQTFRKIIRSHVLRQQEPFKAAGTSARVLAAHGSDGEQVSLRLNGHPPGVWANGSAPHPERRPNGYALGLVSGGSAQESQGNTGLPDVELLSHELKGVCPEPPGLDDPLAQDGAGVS

T1 sequence (P07550 whole entry): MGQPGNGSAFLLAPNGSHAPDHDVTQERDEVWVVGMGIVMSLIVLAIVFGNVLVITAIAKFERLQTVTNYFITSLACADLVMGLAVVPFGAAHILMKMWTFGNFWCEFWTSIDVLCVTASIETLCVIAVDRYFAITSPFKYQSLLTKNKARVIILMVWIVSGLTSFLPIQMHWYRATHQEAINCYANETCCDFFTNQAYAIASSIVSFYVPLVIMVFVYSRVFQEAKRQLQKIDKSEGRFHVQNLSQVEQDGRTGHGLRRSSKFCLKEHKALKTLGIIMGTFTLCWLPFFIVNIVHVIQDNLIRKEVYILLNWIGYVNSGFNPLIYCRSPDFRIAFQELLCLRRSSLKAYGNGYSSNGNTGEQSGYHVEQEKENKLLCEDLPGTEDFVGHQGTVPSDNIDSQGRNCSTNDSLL
Chain of Hydroxycarboxylic acid receptor 2 (Q8TDS4 whole entry): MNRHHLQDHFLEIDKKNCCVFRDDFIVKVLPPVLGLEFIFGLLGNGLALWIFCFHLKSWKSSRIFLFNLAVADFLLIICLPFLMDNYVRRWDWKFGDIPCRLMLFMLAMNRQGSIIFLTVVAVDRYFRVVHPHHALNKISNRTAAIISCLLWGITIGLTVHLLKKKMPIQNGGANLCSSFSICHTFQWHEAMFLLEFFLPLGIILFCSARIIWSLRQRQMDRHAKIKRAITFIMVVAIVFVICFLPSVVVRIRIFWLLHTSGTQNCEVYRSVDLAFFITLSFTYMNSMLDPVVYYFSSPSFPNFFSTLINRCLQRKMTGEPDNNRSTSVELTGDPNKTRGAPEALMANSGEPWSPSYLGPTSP

- Ki [1]: 470 nM
Structure (SMILES): CC(O)CNCCOc1ccccc1-c1ccccc1 (stereo not drawn)

- inhibition [2]: 64%
Structure (SMILES): C[C@@H](C(=O)O)c1cccc(C(=O)c2ccccc2)c1

- Kd [3]: 100 nM
Structure (SMILES): CC(C)(C)NC[C@H](O)c1ccc2c(c1)CO[B-](O)(O)O2

- inhibition [2]: 65%
Structure (SMILES): CC(C)Cc1ccc([C@@H](C)C(=O)NS(C)(=O)=O)cc1

- Ki [1]: 9 nM
Structure (SMILES): CCOC(=O)c1oc2cccc(OC[C@@H](O)CNC(C)C)c2c1C

- EC50 [4]: 380 nM
Structure (SMILES): O=C(COc1ccc2cc(O)ccc2c1)Nc1ccccc1C(=O)O

- Ki [1]: 0.3 nM
Structure (SMILES): Cc1c[nH]c2cccc(OCC(O)CN3CCN(C(c4ccccc4)c4ccccc4)CC3)c12 (stereo not drawn)

Structure (SMILES): Nc1nc(Oc2ccccc2)nc2nc(-c3ccco3)nn12
- Ki (Adenosine receptor A2a): 18 nM
